Data reported in US10617680B2 (CELGENE QUANTICEL RESEARCH, INC., priority 2017, dated 2020).

Molecular target: CBP (Homo sapiens (Human), UniProt Q92793)
Test: In vitro CBP inhibition (AlphaScreen, biotinylated H4-tetraacetyl peptide)
Assay type: binding
Conditions: AlphaScreen, Table 29; read-out: CBP IC50
In short: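 His-tagged CBP expressed in E. coli (50 nM final) incubated with biotinylated H4K5/8/12/16(Ac) peptide (20 nM final) in 50 mM HEPES pH 7.3, 10 mM NaCl, 0.25 mM TCEP, 0.1% BSA, 0.005% Brij-35, 0.4% DMSO, 20 min at room temp.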

Sequence of CBP (Q92793 1081-1197): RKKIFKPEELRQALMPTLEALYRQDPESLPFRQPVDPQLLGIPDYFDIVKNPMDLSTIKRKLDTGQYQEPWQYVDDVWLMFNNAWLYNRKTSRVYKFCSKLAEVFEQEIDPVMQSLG

SMILES	IC50 [nM]
Cc1ccc(-c2cc(=O)n(C)cc2-c2cnn(-c3ccccc3C#N)c2)cc1 [Example 213, 2-[4-(1-Methyl-6-oxo-4-p-tolyl-1,6-dihydro-pyridin-3-yl)-pyrazol-1-yl]-benzonitrile]	< 500
Cc1cc(-c2cnn(C(C)c3cccc(C(F)F)c3)c2)cn(C)c1=O (stereo not drawn) [Example 11, 5-(1-(1-(3-(difluoro-methyl)phenyl)ethyl)-1H-pyrazol-4-yl)-1,3-dimethylpyridin-2(1H)-one]	< 500
Cn1cc(-c2cn(C)c(=O)cc2C2CCCCC2)cn1 [Example 143, 4-cyclohexyl-1-methyl-5-(1-methyl-1H-pyrazol-4-yl)pyridin-2 (1H)-one]	500 to 5000
COCCNc1ncc(-c2cc(=O)n(C)cc2-c2cnn(C(C)c3ccccc3)c2)cn1 (stereo not drawn) [Example 312, 4-(2-((2-methoxyethyl)amino)pyrimidin-5-yl)-1-methyl-5-(1-(1-phenylethyl)-1H-pyrazol-4-yl)pyridin-2(1H)-one]	< 500
Cn1cc(-c2cnn(Cc3ccccc3)c2)c(-c2ccc(F)cc2)cc1=O [Example 149, 5-(1-benzyl-1H-pyrazol-4-yl)-4-(4-fluorophenyl)-1-methyl-pyridin-2(1H)-one]	< 500
Cn1cc(-c2cnn(-c3cccc(C4CC4)c3C#N)c2)c(-c2ccn(CCF)c(=O)c2)cc1=O [Example 389, 2-cyclopropyl-6-[4-[4-[1-(2-fluoroethyl)-2-oxo-4-pyridyl]-1-methyl-6-oxo-3-pyridyl]pyrazol-1-yl]benzonitrile]	< 500
CC(c1ccccc1)n1cc(-c2cn(C)c(=O)cc2-c2ccc(OCCCN(C)C)nc2)cn1 (stereo not drawn) [Example 313, 6-(3-(dimethylamino)propoxy)-1′-methyl-5′-(1-(1-phenylethyl)-1H-pyrazol-4-yl)-[3,4′-bipyridin]-2′(1′H)-one]	< 500
CC(=O)N[C@@H]1CCN(c2cc(=O)n(C)cc2-c2cnn(Cc3ccccc3)c2)C1 [Example 72, (R)-N-(1-(5-(1-benzyl-1H-pyrazol-4-yl)-1-methyl-2-oxo-1,2-dihydropyridin-4-yl)pyrrolidin-3-yl)acctamide]	500 to 5000
Cc1cc(-c2cnn(-c3cc(Oc4ccccc4)ccc3C(=O)O)c2)cn(C)c1=O [Example 259, 2-[4-(1,5-Dimethyl-6-oxo-1,6-dihydro-pyridin-3-yl)-pyrazol-1-yl]-4-phenoxy-benzoic acid]	> 5000
Cn1cc(-c2cnn(Cc3ccccc3)c2)c(-c2ccc(=O)[nH]c2)cc1=O [Example 194, 5′-(1-Benzyl-1H-pyrazol-4-yl)-1′-methyl-1H,1′H-[3,4′]bipyridinyl-6,2′-dione]	< 500
Cn1cc(-c2cnn(Cc3ccccc3)c2)c(N2CCCC2)cc1=O [Example 87, 5-(1-benzyl-1H-pyrazol-4-yl)-1-methyl-4-pyrrolidin-1-yl-1H-pyridin-2-one]	< 500
Cn1ccc(-c2cc(=O)n(C)cc2-c2cnn(-c3ccccc3S(C)(=O)=O)c2)cc1=O [Example 284, 5-[1-(2-Methanesulfonyl-phenyl)-1H-pyrazol-4-yl]-1,1′-dimethyl-1H,1′H-[4,4′]bipyridinyl-2,2′-dione]	< 500
Cn1cc(-c2cnn(Cc3ccccc3)c2)c(-c2cnn(CC#N)c2)cc1=O [Example 163, 2-(4-(5-(1-benzyl-1H-pyrazol-4-yl)-1-methyl-2-oxo-1,2-dihydropyridin-4-yl)-1H-pyrazol-1-yl)acetonitrile]	< 500
CCOc1cc(=O)n(C)cc1-c1cnn(-c2cc(OC3CC3)ccc2C(=O)O)c1 [Example 248, 4-Cyclopropoxy-2-[4-(4-ethoxy-1-methyl-6-oxo-1,6-dihydro-pyridin-3-yl)-pyrazol-1-yl]-benzoic acid]	< 500
Cn1cc(-c2cnn(-c3cccc(Cl)c3C#N)c2)c(-c2cnc(NCC3CC3)nc2)cc1=O [Example 327, 2-chloro-6-(4-(4-(2-((cyclopropylmethyl)amino)pyrimidin-5-yl)-1-methyl-6-oxo-1,6-dihydropyridin-3-yl)-1H-pyrazol-1-yl)benzonitrile]	< 500
C[C@@H](c1ccccc1)n1cc(-c2cn(C)c(=O)cc2N2CCCC2)cn1 [Example 47, (S)-1-methyl-5-(1-(1-phenylethyl)-1H-pyrazol-4-yl)-4-(pyrrolidin-1-yl)pyridin-2(1H)-one]	< 500
CC(c1ccncc1)n1cc(-c2ccc(=O)n(C)c2)cn1 (stereo not drawn) [Example 29, 1-methyl-5-(1-(1-(pyridin-4-yl)ethyl)-1H-pyrazol-4-yl)pyridin-2(1H)-one]	500 to 5000
COc1ccc(-c2cc(=O)n(C)cc2-c2cnn(-c3ccccc3C(=O)O)c2)cn1 [Example 228, 2-[4-(6-Methoxy-1′-methyl-6′-oxo-1′,6′-dihydro-[3,4′]bipyridinyl-3′-yl)-pyrazol-1-yl]-benzoic acid]	< 500
CC(C)Nc1ccc(-c2cc(=O)n(C)cc2-c2cnn(-c3cccc(Cl)c3C#N)c2)cn1 [Example 339, 2-chloro-6-[4-[4-[6-(isopropylamino)-3-pyridyl]-1-methyl-6-oxo-3-pyridyl]-pyrazol-1-yl]benzonitrile]	< 500
CCOc1cc(=O)n(C)cc1-c1cnn(-c2ccccc2C(N)=O)c1 [Example 282, 2-(4-(4-ethoxy-1-methyl-6-oxo-1,6-dihydropyridin-3-yl)-1H-pyrazol-1-yl)benzamide]	< 500
Cc1ccc(-c2cc(=O)n(C)cc2-c2cnn(-c3ccccc3C(=O)O)c2)cc1 [Example 224, 2-[4-(1-Methyl-6-oxo-4-p-tolyl-1,6-dihydro-pyridin-3-yl)-pyrazol-1-yl]-benzoic acid]	< 500
Cn1cc(-c2cnn(-c3cccc(Cl)c3C#N)c2)c(-c2ccc(C(F)(F)F)nc2)cc1=O [Example 370, 2-chloro-6-(4-(1′-methyl-6′-oxo-6-(trifluoromethyl)-1′,6′-dihydro-[3,4′-bipyridin]-3′-yl)-1H-pyrazol-1-yl)benzonitrile]	< 500
Cn1cc(-c2cnn(-c3cccc(F)c3C#N)c2)c(-c2ccc(NC3CCCC3)nc2)cc1=O [Example 343, 2-(4-(6-(cyclopentylamino)-1′-methyl-6′-oxo-1′,6′-dihydro-[3,4′-bipyridin]-3′-yl)-1H-pyrazol-1-yl)-6-fluorobenzonitrile]	< 500
Cn1cc(-c2cnn(-c3ccccc3C(=O)NS(C)(=O)=O)c2)c(C2CC2)cc1=O [Example 302, N-{2-[4-(4-Cyclopropyl-1-methyl-6-oxo-1,6-dihydro-pyridin-3-yl)-pyrazol-1-yl]-benzoyl}-methanesulfonamide]	< 500
CC(c1ccccc1)n1cc(-c2cn(C)c(=O)cc2OC2CCC2)cn1 (stereo not drawn) [Example 49, 4-cyclobutoxy-1-methyl-5-(1-(1-phenylethyl)-1H-pyrazol-4-yl) pyridin-2(1H)-one]	< 500

Next, values leading:

IC50 [nM]	SMILES
< 500	COc1ccc(-c2cc(=O)n(C)cc2-c2cnn(-c3ccccc3C#N)c2)cc1OC [Example 243, 2-(4-(4-(3,4-dimethoxyphenyl)-1-methyl-6-oxo-1,6-dihydropyridin-3-yl)-1H-pyrazol-1-yl)benzonitrile]
< 500	Cc1cc(-c2cnn(-c3cc(Oc4ccccc4)ccc3C#N)c2)cn(C)c1=O [Example 258, 2-[4-(1,5-Dimethyl-6-oxo-1,6-dihydro-pyridin-3-yl)-pyrazol-1-yl]-4-phenoxy-benzonitrile]
< 500	Cn1cc(-c2cnn(-c3cccc(F)c3C#N)c2)c(-c2ccc(N3CCCC3)nc2)cc1=O [Example 350, 2-fluoro-6-[4-[1-methyl-6-oxo-4-(6-pyrrolidin-1-yl-3-pyridyl)-3-pyridyl]pyrazol-1-yl]benzonitrile]
< 500	Cc1cccc(C(C)n2cc(-c3ccc(=O)n(C)c3)cn2)c1 (stereo not drawn) [Example 20, 1-methyl-5-(1-(1-(m-tolyl)ethyl)-1H-pyrazol-4-yl)pyridin-2(1H)-one]
< 500	COc1cc(-c2cc(=O)n(C)cc2-c2cnn(-c3ccccc3Cl)c2)ccn1 [Example 317, 5-(1-(2-chlorophenyl)-1H-pyrazol-4-yl)-2′-methoxy-1-methyl-[4,4′-bipyridin]-2(1H)-one]
< 500	Cn1nc(-c2cn(C)c(=O)cc2-c2ccccc2)cc1-c1ccccc1 [Example 395, 1-methyl-5-(1-methyl-5-phenyl-1H-pyrazol-3-yl)-4-phenylpyridin-2(1H)-one]
< 500	Cn1cc(-c2cnn(-c3ccccc3C#N)c2)c(-c2ccccc2)cc1=O [Example 212, 2-[4-(1-Methyl-6-oxo-4-phenyl-1,6-dihydro-pyridin-3-yl)-pyrazol-1-yl]-benzonitrile]
< 500	CC(C)Cn1cc(-c2cn(C)c(=O)cc2-c2ccccc2)cn1 [Example 137, 5-(1-isobutyl-1H-pyrazol-4-yl)-1-methyl-4-phenylpyridin-2(1H)-one]
500 to 5000	CCOc1cc(=O)n(C)cc1-c1cnn2c1CN(C(C)=O)CC2 [Example 393, 5-(5-Acetyl-4,5,6,7-tetrahydro-pyrazolo[1,5-a]pyrazin-3-yl)-4-ethoxy-1-methyl-1H-pyridin-2-one]
< 500	CCCNC(=O)Cn1cc(-c2cn(C)c(=O)cc2-c2ccccc2)cn1 [Example 141, 2-(4-(1-methyl-6-oxo-4-phenyl-1,6-dihydro-pyridin-3-yl)-1H-pyrazol-1-yl)-N-propylacetamide]
< 500	Cn1cc(-c2cnn(-c3ccccc3C#N)c2)c(-c2ccc(=O)[nH]c2)cc1=O [Example 206, 2-[4-(1′-Methyl-6,6′-dioxo-1,6,1′,6′-tetrahydro-[3,4′]bipyridinyl-3′-yl)-pyrazol-1-y]benzonitrile]
< 500	CCOc1cc(=O)n(C)cc1-c1cn[nH]c1 [Example 69, 4-ethoxy-1-methyl-5-(1H-pyrazol-4-yl)pyridin-2(1H)-one]
< 500	COc1ccc(-c2cc(=O)n(C)cc2-c2cnn(-c3cccc(F)c3C#N)c2)cn1 [Example 274, 2-Fluoro-6-[4-(6-methoxy-1′-methyl-6′-oxo-1′,6′-dihydro-[3,4′]bipyridinyl-3′-yl)-pyrazol-1-yl]-benzonitrile]
< 500	Cc1nn(C)cc1-c1cn(C)c(=O)cc1-c1ccccc1 [Example 136, 5-(1,3-dimethyl-1H-pyrazol-4-yl)-1-methyl-4-phenylpyridin-2(1H)-one]
